Assay results published in publication PMC6591251, “Discovery of potent necroptosis inhibitors targeting RIPK1 kinase activity for the treatment of inflammatory disorder and cancer metastasis” (Cell Death & Disease, 2019).

Tests used:
Assay in all cases: RBC kinase panel
Assay type in all cases: biochemical
DMPK2 = molecular target: T1, DMPK2 (Homo sapiens, UniProt Q6DT37); conditions: ATP 10 μM, Data1, Data2
T1 construct: purchased Reaction Biology Corporation
In short: (§1)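 In this selectivity screen, one compound concentration (1 μM) was applied to 369 human kinases, with duplicates and 10 μM ATP in each reaction.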

Haspin = molecular target: T2, Haspin (Homo sapiens, UniProt Q8TF76); conditions: ATP 10 μM, Data1, Data2
T2 construct: purchased Reaction Biology Corporation
In short: as §1

STK32B/YANK2 = molecular target: T3, STK32B/YANK2 (Homo sapiens, UniProt Q9NY57); conditions: ATP 10 μM, Data1, Data2
T3 construct: purchased Reaction Biology Corporation
In short: as §1

FGFR2 = molecular target: T4, FGFR2 (Homo sapiens, UniProt P21802); conditions: ATP 10 μM, Data1, Data2
T4 construct: purchased Reaction Biology Corporation
In short: as §1

ULK2 = molecular target: T5, ULK2 (Homo sapiens, UniProt Q8IYT8); conditions: ATP 10 μM, Data1, Data2
T5 construct: purchased Reaction Biology Corporation
In short: as §1

SYK = molecular target: T6, SYK (Homo sapiens, UniProt P43405); conditions: ATP 10 μM, Data1, Data2
T6 construct: purchased Reaction Biology Corporation
In short: as §1

CDK7/cyclin H = molecular target: T7, CDK7/cyclin H (Homo sapiens, UniProt P50613); conditions: ATP 10 μM, Data1, Data2
T7 construct: purchased Reaction Biology Corporation
In short: as §1

AKT3 = molecular target: T8, AKT3 (Homo sapiens, UniProt Q9Y243); conditions: ATP 10 μM, Data1, Data2
T8 construct: purchased Reaction Biology Corporation
In short: as §1

PKCeta = molecular target: T9, PKCeta (Homo sapiens, UniProt P24723); conditions: ATP 10 μM, Data1, Data2
T9 construct: purchased Reaction Biology Corporation
In short: as §1

MARK3 = molecular target: T10, MARK3 (Homo sapiens, UniProt P27448); conditions: ATP 10 μM, Data1, Data2
T10 construct: purchased Reaction Biology Corporation
In short: as §1

SGK3/SGKL = molecular target: T11, SGK3/SGKL (Homo sapiens, UniProt Q96BR1); conditions: ATP 10 μM, Data1, Data2
T11 construct: purchased Reaction Biology Corporation
In short: as §1

TRKB = molecular target: T12, TRKB (Homo sapiens, UniProt Q16620)
T12 construct: purchased Reaction Biology Corporation
In short: as §1

YES/YES1 = molecular target: T13, YES/YES1 (Homo sapiens, UniProt P07947); conditions: ATP 10 μM, Data1, Data2
T13 construct: purchased Reaction Biology Corporation
In short: as §1

PKAcg = molecular target: T14, PKAcg (Homo sapiens, UniProt P22612); conditions: ATP 10 μM, Data1, Data2
T14 construct: purchased Reaction Biology Corporation
In short: as §1

DRAK1/STK17A = molecular target: T15, DRAK1/STK17A (Homo sapiens, UniProt Q9UEE5); conditions: ATP 10 μM, Data1, Data2
T15 construct: purchased Reaction Biology Corporation
In short: as §1

RIPK5 = molecular target: T16, RIPK5 (Homo sapiens, UniProt Q6XUX3); conditions: ATP 10 μM, Data1, Data2
T16 construct: purchased Reaction Biology Corporation
In short: as §1

JAK1 = molecular target: T17, JAK1 (Homo sapiens, UniProt P23458); conditions: ATP 10 μM, Data1, Data2
T17 construct: purchased Reaction Biology Corporation
In short: as §1

NEK2 = molecular target: T18, NEK2 (Homo sapiens, UniProt P51955); conditions: ATP 10 μM, Data1, Data2
T18 construct: purchased Reaction Biology Corporation
In short: as §1

SBK1 = molecular target: T19, SBK1 (Homo sapiens, UniProt Q52WX2); conditions: ATP 10 μM, Data1, Data2
T19 construct: purchased Reaction Biology Corporation
In short: as §1

SRPK1 = molecular target: T20, SRPK1 (Homo sapiens, UniProt Q96SB4); conditions: ATP 10 μM, Data1, Data2
T20 construct: purchased Reaction Biology Corporation
In short: as §1

MARK4 = molecular target: T21, MARK4 (Homo sapiens, UniProt Q96L34); conditions: ATP 10 μM, Data1, Data2
T21 construct: purchased Reaction Biology Corporation
In short: as §1

NIM1 = molecular target: T22, NIM1 (Homo sapiens, UniProt Q8IY84); conditions: ATP 10 μM, Data1, Data2
T22 construct: purchased Reaction Biology Corporation
In short: as §1

LATS2 = molecular target: T23, LATS2 (Homo sapiens, UniProt Q9NRM7); conditions: ATP 10 μM, Data1, Data2
T23 construct: purchased Reaction Biology Corporation
In short: as §1

ALK6/BMPR1B = molecular target: T24, ALK6/BMPR1B (Homo sapiens, UniProt O00238); conditions: ATP 10 μM, Data1, Data2
T24 construct: purchased Reaction Biology Corporation
In short: as §1

BMX/ETK = molecular target: T25, BMX/ETK (Homo sapiens, UniProt P51813); conditions: ATP 10 μM, Data1, Data2
T25 construct: purchased Reaction Biology Corporation
In short: as §1

JNK1 = molecular target: T26, JNK1 (Homo sapiens, UniProt P45983); conditions: ATP 10 μM, Data1, Data2
T26 construct: purchased Reaction Biology Corporation
In short: as §1

MAK = molecular target: T27, MAK (Homo sapiens, UniProt P20794); conditions: ATP 10 μM, Data1, Data2
T27 construct: purchased Reaction Biology Corporation
In short: as §1

DYRK1B = molecular target: T28, DYRK1B (Homo sapiens, UniProt Q9Y463); conditions: ATP 10 μM, Data1, Data2
T28 construct: purchased Reaction Biology Corporation
In short: as §1

BRAF = molecular target: T29, BRAF (Homo sapiens, UniProt P15056); conditions: ATP 10 μM, Data1, Data2
T29 construct: purchased Reaction Biology Corporation
In short: as §1

GCK/MAP4K2 = molecular target: T30, GCK/MAP4K2 (Homo sapiens, UniProt Q12851); conditions: ATP 10 μM, Data1, Data2
T30 construct: purchased Reaction Biology Corporation
In short: as §1

c-Kit = molecular target: T31, c-Kit (Homo sapiens, UniProt P10721); conditions: ATP 10 μM, Data1, Data2
T31 construct: purchased Reaction Biology Corporation
In short: as §1

MYO3A = molecular target: T32, MYO3A (Homo sapiens, UniProt Q8NEV4); conditions: ATP 10 μM, Data1, Data2
T32 construct: purchased Reaction Biology Corporation
In short: as §1

AKT1 = molecular target: T33, AKT1 (Homo sapiens, UniProt P31749); conditions: ATP 10 μM, Data1, Data2
T33 construct: purchased Reaction Biology Corporation
In short: as §1

T12 sequence (Q16620 32-822): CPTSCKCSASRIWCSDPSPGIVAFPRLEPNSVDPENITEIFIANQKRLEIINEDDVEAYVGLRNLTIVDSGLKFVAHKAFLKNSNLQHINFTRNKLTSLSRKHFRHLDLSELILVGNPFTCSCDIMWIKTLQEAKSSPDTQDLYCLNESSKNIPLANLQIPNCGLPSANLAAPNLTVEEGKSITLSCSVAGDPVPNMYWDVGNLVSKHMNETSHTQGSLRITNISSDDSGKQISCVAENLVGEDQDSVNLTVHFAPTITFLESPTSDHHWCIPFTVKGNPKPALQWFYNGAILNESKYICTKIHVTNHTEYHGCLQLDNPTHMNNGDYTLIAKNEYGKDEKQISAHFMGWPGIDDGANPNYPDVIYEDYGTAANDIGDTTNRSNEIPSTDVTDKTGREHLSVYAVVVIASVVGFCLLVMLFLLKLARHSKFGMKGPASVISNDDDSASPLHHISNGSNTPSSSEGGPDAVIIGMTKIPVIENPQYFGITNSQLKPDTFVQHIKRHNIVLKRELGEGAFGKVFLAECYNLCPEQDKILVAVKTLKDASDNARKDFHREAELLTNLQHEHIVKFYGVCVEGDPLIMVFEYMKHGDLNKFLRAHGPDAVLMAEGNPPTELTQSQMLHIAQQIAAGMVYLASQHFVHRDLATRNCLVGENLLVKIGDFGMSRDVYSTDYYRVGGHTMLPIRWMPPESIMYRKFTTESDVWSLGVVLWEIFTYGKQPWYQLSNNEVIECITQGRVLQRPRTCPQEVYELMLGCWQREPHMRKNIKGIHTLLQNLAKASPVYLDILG
T19 sequence (Q52WX2 whole entry): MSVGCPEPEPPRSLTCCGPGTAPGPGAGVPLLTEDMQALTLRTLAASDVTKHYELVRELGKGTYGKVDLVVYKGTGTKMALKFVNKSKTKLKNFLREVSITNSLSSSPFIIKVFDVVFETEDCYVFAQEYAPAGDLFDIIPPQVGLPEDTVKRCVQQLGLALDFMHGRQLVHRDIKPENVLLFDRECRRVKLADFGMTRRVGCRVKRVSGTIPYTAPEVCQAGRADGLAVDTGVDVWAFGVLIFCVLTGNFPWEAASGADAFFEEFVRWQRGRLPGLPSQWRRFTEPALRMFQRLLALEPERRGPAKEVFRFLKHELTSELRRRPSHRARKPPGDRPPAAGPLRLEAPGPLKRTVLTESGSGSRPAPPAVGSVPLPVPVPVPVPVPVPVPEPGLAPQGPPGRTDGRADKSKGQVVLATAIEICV
T1 sequence (Q6DT37 whole entry): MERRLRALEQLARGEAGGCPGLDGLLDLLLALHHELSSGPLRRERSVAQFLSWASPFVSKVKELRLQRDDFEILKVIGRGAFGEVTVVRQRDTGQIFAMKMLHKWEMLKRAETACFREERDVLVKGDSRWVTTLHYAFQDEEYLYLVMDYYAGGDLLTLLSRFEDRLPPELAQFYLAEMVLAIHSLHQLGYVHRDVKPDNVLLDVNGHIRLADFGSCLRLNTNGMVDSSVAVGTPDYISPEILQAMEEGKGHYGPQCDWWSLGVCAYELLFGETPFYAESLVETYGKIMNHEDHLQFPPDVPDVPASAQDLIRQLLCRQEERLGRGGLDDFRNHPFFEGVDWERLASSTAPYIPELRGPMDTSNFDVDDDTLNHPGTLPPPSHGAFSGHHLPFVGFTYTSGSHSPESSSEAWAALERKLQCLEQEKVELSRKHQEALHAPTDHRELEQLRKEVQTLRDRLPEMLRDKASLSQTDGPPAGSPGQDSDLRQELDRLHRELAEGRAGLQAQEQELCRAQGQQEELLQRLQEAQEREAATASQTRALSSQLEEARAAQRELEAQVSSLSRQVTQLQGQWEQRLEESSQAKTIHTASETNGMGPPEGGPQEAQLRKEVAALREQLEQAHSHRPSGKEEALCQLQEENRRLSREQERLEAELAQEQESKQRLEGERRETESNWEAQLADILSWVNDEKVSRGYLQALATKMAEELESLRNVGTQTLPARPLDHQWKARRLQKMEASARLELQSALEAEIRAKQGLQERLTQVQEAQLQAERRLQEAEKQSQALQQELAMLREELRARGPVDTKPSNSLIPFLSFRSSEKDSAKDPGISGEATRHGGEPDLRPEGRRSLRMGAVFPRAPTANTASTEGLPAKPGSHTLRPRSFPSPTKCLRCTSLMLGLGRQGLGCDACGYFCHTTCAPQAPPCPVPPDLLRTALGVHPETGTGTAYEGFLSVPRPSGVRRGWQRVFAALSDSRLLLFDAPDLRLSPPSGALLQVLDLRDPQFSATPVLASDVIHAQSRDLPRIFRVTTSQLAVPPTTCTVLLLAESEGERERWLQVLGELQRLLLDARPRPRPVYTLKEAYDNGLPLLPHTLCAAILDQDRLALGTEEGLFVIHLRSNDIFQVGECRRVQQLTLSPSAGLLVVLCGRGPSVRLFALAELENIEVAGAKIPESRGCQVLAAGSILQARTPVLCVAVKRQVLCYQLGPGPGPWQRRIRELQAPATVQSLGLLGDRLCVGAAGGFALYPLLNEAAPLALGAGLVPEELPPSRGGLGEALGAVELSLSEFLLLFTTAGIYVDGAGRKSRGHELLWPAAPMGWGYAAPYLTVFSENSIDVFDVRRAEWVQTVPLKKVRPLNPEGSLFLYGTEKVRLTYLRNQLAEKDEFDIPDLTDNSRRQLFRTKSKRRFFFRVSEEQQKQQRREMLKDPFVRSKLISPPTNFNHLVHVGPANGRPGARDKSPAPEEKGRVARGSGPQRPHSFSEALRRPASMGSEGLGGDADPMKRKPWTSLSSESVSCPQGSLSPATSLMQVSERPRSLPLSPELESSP
T17 sequence (P23458 whole entry): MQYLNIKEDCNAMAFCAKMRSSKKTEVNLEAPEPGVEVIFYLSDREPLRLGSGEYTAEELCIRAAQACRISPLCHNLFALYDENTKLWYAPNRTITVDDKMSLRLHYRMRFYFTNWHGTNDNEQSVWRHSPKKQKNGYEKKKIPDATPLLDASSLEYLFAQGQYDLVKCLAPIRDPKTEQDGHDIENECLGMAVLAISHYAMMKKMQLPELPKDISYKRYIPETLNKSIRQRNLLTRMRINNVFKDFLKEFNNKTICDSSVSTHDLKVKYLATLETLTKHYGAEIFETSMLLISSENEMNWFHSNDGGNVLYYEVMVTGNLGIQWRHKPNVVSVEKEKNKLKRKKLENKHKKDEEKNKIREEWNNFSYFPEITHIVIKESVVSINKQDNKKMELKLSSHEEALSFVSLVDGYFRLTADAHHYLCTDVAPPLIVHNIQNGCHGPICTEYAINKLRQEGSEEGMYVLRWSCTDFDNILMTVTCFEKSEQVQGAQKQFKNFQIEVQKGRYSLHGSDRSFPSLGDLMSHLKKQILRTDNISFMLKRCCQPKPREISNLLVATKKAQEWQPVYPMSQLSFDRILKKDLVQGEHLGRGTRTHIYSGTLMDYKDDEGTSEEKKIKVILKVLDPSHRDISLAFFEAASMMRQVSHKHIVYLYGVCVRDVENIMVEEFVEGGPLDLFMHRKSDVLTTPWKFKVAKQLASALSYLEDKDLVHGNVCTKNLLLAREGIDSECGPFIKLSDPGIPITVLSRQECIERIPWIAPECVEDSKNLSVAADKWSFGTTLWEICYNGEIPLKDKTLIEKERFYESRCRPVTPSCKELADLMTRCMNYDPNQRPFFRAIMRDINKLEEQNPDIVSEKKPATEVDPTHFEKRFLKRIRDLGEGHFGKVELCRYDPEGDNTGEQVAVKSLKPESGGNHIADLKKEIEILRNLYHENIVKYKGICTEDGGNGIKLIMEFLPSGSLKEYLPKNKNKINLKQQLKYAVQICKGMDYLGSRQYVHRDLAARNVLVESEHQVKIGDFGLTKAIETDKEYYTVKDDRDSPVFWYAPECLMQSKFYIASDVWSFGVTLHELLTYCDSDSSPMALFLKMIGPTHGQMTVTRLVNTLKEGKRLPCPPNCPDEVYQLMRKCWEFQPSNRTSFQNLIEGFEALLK
T4 sequence (P21802 22-821): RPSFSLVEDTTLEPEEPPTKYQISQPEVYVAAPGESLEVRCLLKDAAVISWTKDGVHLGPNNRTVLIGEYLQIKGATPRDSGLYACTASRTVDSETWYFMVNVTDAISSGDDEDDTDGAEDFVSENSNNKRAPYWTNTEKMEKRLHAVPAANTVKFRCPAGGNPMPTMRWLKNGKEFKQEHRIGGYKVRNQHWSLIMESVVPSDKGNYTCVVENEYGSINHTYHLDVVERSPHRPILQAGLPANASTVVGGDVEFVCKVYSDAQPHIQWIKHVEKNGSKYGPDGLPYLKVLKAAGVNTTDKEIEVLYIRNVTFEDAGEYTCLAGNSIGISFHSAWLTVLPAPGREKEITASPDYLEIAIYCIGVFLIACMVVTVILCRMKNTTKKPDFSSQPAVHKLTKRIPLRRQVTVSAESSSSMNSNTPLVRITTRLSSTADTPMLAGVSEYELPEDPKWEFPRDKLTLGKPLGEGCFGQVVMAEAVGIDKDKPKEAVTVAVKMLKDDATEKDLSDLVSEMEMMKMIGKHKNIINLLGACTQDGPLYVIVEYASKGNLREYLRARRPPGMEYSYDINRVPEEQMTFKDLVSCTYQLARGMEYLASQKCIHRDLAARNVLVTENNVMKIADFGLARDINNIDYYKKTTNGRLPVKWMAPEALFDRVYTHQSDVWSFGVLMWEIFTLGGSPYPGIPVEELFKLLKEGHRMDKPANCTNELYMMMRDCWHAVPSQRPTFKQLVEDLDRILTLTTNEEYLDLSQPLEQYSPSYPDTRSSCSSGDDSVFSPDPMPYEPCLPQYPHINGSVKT
T14 sequence (P22612 whole entry): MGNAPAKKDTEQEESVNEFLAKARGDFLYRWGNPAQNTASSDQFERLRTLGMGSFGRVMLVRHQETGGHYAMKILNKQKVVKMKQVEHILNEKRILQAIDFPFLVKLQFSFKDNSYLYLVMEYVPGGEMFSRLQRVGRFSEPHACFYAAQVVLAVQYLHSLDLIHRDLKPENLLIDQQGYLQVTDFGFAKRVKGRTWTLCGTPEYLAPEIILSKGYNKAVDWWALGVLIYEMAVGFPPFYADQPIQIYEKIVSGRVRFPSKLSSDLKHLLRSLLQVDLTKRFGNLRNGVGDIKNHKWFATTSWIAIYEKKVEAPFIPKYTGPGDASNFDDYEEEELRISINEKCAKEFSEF

CC(=O)Nc1nc2ccc(-c3cnc(C)c(NC(=O)OC4CCCCC4)c3)cc2s1 [PK68, cyclohexyl (5-(2-acetamidobenzo[d]thiazol-6-yl)-2-methylpyridin-3-yl)carbamate]
Activity% (DMPK2; 1 μM): 96.42% | activity at 1 µM (DMPK2): 98.3% | Activity% (Haspin; 1 μM): 94.31% | activity at 1 µM (Haspin): 94.5% | Activity% (STK32B/YANK2; 1 μM): 106.39% | activity at 1 µM (STK32B/YANK2): 107% | Activity% (FGFR2; 1 μM): 88.90% | activity at 1 µM (FGFR2): 91% | Activity% (ULK2; 1 μM): 101.80% | activity at 1 µM (ULK2): 102% | Activity% (SYK; 1 μM): 98.85% | activity at 1 µM (SYK): 99.5% | Activity% (CDK7/cyclin H; 1 μM): 87.73% | activity at 1 µM (CDK7/cyclin H): 89.2% | Activity% (AKT3; 1 μM): 98.71% | activity at 1 µM (AKT3): 100% | Activity% (PKCeta; 1 μM): 90.40% | activity at 1 µM (PKCeta): 92.8% | Activity% (MARK3; 1 μM): 103.78% | activity at 1 µM (MARK3): 104% | Activity% (SGK3/SGKL; 1 μM): 99.59% | activity at 1 µM (SGK3/SGKL): 102% | Activity% (TRKB; 1 μM, ATP 10 μM, Data1, Data2): 41.21% | activity at 1 µM (TRKB; 1 μM, ATP 10 μM, Data1, Data2): 41.2% | inhibition at 1 µM (TRKB; at 1000 nM): > 50% | Activity% (YES/YES1; 1 μM): 87.91% | activity at 1 µM (YES/YES1): 89.2% | Activity% (PKAcg; 1 μM): 94.66% | activity at 1 µM (PKAcg): 95.6% | Activity% (DRAK1/STK17A; 1 μM): 90.72% | activity at 1 µM (DRAK1/STK17A): 91.3% | Activity% (RIPK5; 1 μM): 102.45% | activity at 1 µM (RIPK5): 103% | Activity% (JAK1; 1 μM): 99.20% | activity at 1 µM (JAK1): 99.5% | Activity% (NEK2; 1 μM): 112.29% | activity at 1 µM (NEK2): 115% | Activity% (SBK1; 1 μM): 102.75% | activity at 1 µM (SBK1): 104% | Activity% (SRPK1; 1 μM): 99.67% | activity at 1 µM (SRPK1): 100% | Activity% (MARK4; 1 μM): 101.55% | activity at 1 µM (MARK4): 103% | Activity% (NIM1; 1 μM): 96.79% | activity at 1 µM (NIM1): 97.5% | Activity% (LATS2; 1 μM): 93.96% | activity at 1 µM (LATS2): 94.4% | Activity% (ALK6/BMPR1B; 1 μM): 91.83% | activity at 1 µM (ALK6/BMPR1B): 92.5% | Activity% (BMX/ETK; 1 μM): 99.71% | activity at 1 µM (BMX/ETK): 99.9% | Activity% (JNK1; 1 μM): 97.06% | activity at 1 µM (JNK1): 98.7% | Activity% (MAK; 1 μM): 96.81% | activity at 1 µM (MAK): 97% | Activity% (DYRK1B; 1 μM): 97.55% | activity at 1 µM (DYRK1B): 99.4% | Activity% (BRAF; 1 μM): 83.61% | activity at 1 µM (BRAF): 84.8% | Activity% (GCK/MAP4K2; 1 μM): 96.82% | activity at 1 µM (GCK/MAP4K2): 97.6% | Activity% (c-Kit; 1 μM): 75.47% | activity at 1 µM (c-Kit): 77.5% | Activity% (MYO3A; 1 μM): 91.22% | activity at 1 µM (MYO3A): 92.2% | Activity% (AKT1; 1 μM): 99.12% | activity at 1 µM (AKT1): 99.2%
